# Measured values as given in publication PMC6378217, “The lysyl oxidase like 2/3 enzymatic inhibitor, PXS‐5153A, reduces crosslinks and ameliorates fibrosis” (Journal of Cellular and Molecular Medicine, 2018).
# Legend:
# [1] = tested on: fibrotic marker genes in the liver; experiment: CCl4-induced liver fibrosis: mRNA expression of fibrotic markers in whole liver homogenates; format: in vivo, Sprague Dawley rats; conditions: PXS-5153A treatment
# Method: The study was performed by Pharmalegacy with approval from local ethics committee. Sprague Dawley rats were orally administered with 0.25 μL/g Carbon tetrachloride (CCl4) in olive oil solution, starting from day 0, 3 times per week for 6 weeks. Animals were killed 48 hours after the last CCl4 administration. PXS‐5153A was given by oral gavage after 3 weeks of CCl4 administration and continued throughout the remainder of the study at 3 mg/kg (low dose) or 10 mg/kg (high dose) once a day or 10 mg/kg (high dose) three times a week. Alanine aminotransferase (ALT) and aspartate aminotransferase (AST) levels were assessed in the plasma. One lobe of the liver tissue was fixed in 10% formalin, stained for Sirius red and the percentage coverage area was measured. The remainder of the liver was snap frozen and used for protein, hydroxyproline and crosslink analysis.
# Total RNA was extracted with the PureLink RNA Mini Kit according to the manufacturer's instructions (Ambion), followed by the cDNA synthesis using SuperScript VILO cDNA Synthesis Kit (Life technologies). Gene expression was measured by the 2^−ΔΔCT method using ABI7500 (Applied Biosystems) with the ABI TaqMan primer sets as specified in the supporting information.
# Data was normalised to expression of the internal quantitative control (GAPDH) and expressed as the fold-change compared to the Sham treatment group.
# [2] = molecular target: T1, LOXL2 (Homo sapiens, UniProt Q9Y4K0); experiment: In vitro crosslinking assay; format: biochemical; design: purchased R&D Systems; conditions: 200 nmol/L PXS-5153A, 20 nmol/L rhLOXL2 daily for 5 days, crosslinks on day 7
# T1 sequence (Q9Y4K0 26-774): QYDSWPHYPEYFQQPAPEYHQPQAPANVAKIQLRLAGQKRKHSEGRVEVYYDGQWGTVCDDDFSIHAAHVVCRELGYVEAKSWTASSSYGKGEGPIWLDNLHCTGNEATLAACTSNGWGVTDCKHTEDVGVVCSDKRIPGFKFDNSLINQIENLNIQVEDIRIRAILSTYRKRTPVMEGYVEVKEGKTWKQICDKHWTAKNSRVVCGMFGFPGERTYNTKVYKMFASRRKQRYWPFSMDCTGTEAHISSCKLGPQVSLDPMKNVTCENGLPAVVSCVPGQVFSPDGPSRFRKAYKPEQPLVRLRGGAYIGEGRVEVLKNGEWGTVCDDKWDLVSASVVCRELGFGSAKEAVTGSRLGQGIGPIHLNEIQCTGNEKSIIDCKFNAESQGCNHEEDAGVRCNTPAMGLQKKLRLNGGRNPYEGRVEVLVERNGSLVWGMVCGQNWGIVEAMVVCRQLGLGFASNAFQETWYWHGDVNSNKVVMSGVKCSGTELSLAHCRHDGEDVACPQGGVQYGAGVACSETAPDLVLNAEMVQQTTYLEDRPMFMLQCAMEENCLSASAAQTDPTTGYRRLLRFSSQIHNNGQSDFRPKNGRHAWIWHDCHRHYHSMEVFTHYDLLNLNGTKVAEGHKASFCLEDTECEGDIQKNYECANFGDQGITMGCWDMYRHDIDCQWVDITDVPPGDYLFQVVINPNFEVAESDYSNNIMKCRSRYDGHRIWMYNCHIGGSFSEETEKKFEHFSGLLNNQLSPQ
# Method: About 200 μL of 3 mg/mL collagen (rat tail, type I, Thermo Fisher) was combined with 800 μL of 50 mmol/L sodium borate buffer (pH 8.2) and 20 nmol/L of rhLOXL2 (with or without inhibitor, PXS‐5153A 200 nmol/L). Enzyme/inhibitor were replenished daily for 5 days. Samples were incubated at 37°C and crosslinks were extracted on day 7.
# About 10mg of freeze‐dried samples were reduced with NaBH4. Pellet then underwent acid hydrolysis in 6 mol/L HCl at 100°C for 24 hours. Hydroxyproline and crosslinks were extracted from the hydrolysate using an automated solid phase extraction system (Gilson GX‐271 ASPECA system). After extraction and drying, hydroxyproline and crosslinks were analysed by UHPLC‐ESI‐MS/MS on a Thermo Dionex UHPLC and TSQ Endura triple quad mass spectrometer. Total protein was quantified in the samples using a commercially available kit (QuickZyme Biosciences, Leiden, The Netherlands). For detailed procedures, see supporting information.
# [3] = molecular target: Potassium Channel hERG (Homo sapiens, UniProt Q12809); experiment: Eurofins Hit Profiling Screen; format: binding; conditions: 10 μmol/L
# Potassium Channel hERG, sequence (Q12809 whole entry): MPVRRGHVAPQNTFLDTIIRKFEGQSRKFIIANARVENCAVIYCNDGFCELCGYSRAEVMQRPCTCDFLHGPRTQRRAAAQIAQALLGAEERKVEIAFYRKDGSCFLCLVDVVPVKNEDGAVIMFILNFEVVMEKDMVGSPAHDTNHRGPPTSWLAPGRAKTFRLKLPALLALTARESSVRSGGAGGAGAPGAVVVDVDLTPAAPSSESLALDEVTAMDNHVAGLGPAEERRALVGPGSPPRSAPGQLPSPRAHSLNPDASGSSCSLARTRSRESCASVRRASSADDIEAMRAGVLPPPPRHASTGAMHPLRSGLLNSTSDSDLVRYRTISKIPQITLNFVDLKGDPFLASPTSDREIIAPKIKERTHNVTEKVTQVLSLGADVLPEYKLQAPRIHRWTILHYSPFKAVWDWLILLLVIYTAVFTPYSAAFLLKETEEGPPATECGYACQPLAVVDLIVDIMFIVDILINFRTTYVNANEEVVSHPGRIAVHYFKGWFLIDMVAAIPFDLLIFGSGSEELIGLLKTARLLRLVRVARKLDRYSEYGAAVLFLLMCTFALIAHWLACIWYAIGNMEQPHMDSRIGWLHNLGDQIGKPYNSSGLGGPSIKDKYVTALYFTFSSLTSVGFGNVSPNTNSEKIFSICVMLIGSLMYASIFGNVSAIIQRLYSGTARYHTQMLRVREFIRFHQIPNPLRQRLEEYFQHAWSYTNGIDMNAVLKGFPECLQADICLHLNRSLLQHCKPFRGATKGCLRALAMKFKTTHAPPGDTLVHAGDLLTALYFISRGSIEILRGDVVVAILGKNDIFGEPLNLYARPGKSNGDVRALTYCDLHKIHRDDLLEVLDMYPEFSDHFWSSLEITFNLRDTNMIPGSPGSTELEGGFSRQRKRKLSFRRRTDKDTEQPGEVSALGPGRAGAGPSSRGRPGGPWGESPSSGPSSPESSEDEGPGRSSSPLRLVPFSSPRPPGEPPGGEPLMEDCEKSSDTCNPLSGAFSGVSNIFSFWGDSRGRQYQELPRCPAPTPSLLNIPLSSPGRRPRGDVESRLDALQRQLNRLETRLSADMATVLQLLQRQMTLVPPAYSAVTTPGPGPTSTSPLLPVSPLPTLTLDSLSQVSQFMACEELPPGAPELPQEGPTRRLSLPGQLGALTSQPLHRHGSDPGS
# [4] = Pharmacokinetic study in rats; format: in vivo, Wistar rats; conditions: rat
# Method: Studies were performed by Pharmalegacy (Shanghai, China), GVK (Hyderabad, India) and Sundia, (Shanghai, China), with local ethics approval. Wistar rats were administered PXS‐5153A orally at 10 mg/kg or intravenously at 5 mg/kg, while C57/BL6 mice received PXS‐5153A orally or intravenously at 5 mg/kg. Plasma was analysed for PXS‐5153A by high‐performance liquid chromatography‐mass spectrometry/mass spectrometry (LCMS/MS).
# [5] = molecular target: MAO-A (Homo sapiens, UniProt P21397); experiment: MAO-A enzymatic activity assay; format: biochemical
# MAO-A, sequence (P21397 whole entry): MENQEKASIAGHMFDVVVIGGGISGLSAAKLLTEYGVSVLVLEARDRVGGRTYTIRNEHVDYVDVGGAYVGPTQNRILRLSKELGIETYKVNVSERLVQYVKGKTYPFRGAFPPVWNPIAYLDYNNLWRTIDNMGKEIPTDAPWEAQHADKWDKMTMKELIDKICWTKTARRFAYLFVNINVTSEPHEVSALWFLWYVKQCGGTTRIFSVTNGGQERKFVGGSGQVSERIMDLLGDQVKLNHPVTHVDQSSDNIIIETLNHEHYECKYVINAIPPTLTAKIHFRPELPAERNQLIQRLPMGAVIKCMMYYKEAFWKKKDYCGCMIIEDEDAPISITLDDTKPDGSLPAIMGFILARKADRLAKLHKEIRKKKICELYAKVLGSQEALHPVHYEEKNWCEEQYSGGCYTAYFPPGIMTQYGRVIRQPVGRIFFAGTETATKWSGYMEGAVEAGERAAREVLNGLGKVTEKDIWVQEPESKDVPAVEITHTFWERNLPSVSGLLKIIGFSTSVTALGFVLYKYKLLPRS
# Method: The measurement of the enzymatic activity of all lysyl oxidase family members was based on the detection of hydrogen peroxide with an Amplex‐Red oxidation assay, as described in Zhou et al26 Recombinant human semicarbazide sensitive amine oxidase (SSAO/VAP1), diamine oxidase (DAO) and monoamine oxidases A and B (MAO‐A and MAO‐B) assays were performed as previously described.27 For detailed enzymatic procedures, see supporting information.
# Recombinant human semicarbazide sensitive amine oxidase (SSAO/VAP1), diamine oxidase (DAO) and monoamine oxidases A and B (MAO-A and MAO-B) assays were performed as previously described.
# [6] = molecular target: Adrenergic β1 (Homo sapiens, UniProt P08588); experiment: Eurofins Hit Profiling Screen; format: binding; conditions: 10 μmol/L
# Adrenergic β1, sequence (P08588 whole entry): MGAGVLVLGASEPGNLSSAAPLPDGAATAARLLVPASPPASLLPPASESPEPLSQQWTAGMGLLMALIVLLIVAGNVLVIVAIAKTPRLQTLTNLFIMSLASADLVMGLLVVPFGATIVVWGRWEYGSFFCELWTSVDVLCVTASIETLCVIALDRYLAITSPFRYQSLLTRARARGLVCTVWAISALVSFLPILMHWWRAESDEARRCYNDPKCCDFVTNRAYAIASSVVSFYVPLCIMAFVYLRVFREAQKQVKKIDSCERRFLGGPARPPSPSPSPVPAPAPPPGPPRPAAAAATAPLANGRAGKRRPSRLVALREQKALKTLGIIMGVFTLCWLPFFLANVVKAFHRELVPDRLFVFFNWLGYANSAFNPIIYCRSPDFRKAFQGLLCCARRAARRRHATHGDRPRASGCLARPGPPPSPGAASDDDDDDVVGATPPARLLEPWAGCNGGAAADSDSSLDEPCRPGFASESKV
smiles,measurement,setting,value
Cc1c(-c2cccc(S(=O)(=O)N(C)C)c2)c2ncccc2n1C/C(F)=C/CN.Cl.Cl [PXS-5153A],induction of key fibrotic marker genes in the liver,[1],suppressed the induction
same,"crosslink formation DHLNL, HLNL, PYD, DPD",[2],prevented all crosslink formation
same,% inhibition,[3],47%
same,"Apparent half-life, t1/2",[4]; intravenous 5 mg/kg,78 min
same,Clearance CL,[4]; intravenous 5 mg/kg,180 mL/min/kg
same,Time of maximal concentration Tmax,[4]; intravenous 5 mg/kg,1.8 min
same,Apparent concentration at curve maximum Cmax,[4]; oral 10 mg/kg,33 ng/mL
same,Clearance CL,[4]; oral 10 mg/kg,2029 mL/min/kg
same,Time of maximal concentration Tmax,[4]; oral 10 mg/kg,37.5 min
same,Bioavailability,[4]; oral 10 mg/kg (i.v. 5 mg/kg),10%
same,IC50,[5],> 30 µM
same,% inhibition,[6],3%
